In patent US20230390296A1, “NOVEL TREATMENT AND PREVENTION OF SARCOPENIA-RELATED DISEASES” (KEIO UNIVERSITY, priority 2020, published 2023):
“Also recorded” adds a separate entry of the source.

Columns and labels:
[1] = test system: sarcopenia mouse models; assay: Biochemical test on organ (creatine, IL-6, cholesterol etc. concentrations); format: in vivo; conditions: administered versus non-administered sarcopenia mouse models
Procedure: Mouse models were divided into two groups. The creatine concentration, IL-6 concentration, and cholesterol concentration were measured for sarcopenia mouse models administered with OK-1 and sarcopenia mouse models without administration of OK-1.
Mouse models were divided into two groups. The creatine concentration, IL-6 concentration, cholesterol concentration, UN (urea nitrogen is a biomarker that can predict the dysfunction of kidney or urinary system) concentration, and UA (uric acid is a biomarker for kidney or liver function) concentration were measured for sarcopenia mouse models administered with C-82 and sarcopenia mouse models without administration of C-82.

[2] = test system: muscle of mice (C57BL/6J) with exercise; assay: Gene analysis (RNA-seq, GSEA) of muscle of administered mice with exercise; format: in vivo, mouse
Procedure: Gene analysis (RNA-seq) in OK-1 administered mice (C57BL/6J) with exercise was performed by the same method as Example 2.
The category of genes with differential expression identified in Example 5 was analyzed by the same method (GSEA) as Example 3 (FIG. 6).

[3] = test system: sarcopenia mouse models; assay: Cardiac function test (echocardiogram and treadmill); format: in vivo; conditions: administered versus non-administered sarcopenia mouse models
Procedure: This Example used mouse models prepared in the Preparation Example.
Measurement can be taken using Kumamoto Mouse Clinic (KMC) of Kumamoto University.
Mouse models were divided into two groups. Cardiac function was tested for sarcopenia mouse models administered with OK-1 and sarcopenia mouse models without administration of OK-1. Cardiac function was tested and analyzed using an echocardiogram and treadmill.
Mouse models were divided into two groups. Cardiac function was tested for sarcopenia mouse models administered with C-82 and sarcopenia mouse models without administration of C-82. Cardiac function was tested and analyzed using an echocardiogram and treadmill.

[4] = test system: old mice (C57BL/6J); assay: Treadmill test of muscle strength (endurance) in young and old mice; format: in vivo, mouse
Excerpt: Decrease in endurance in old mice In order to confirm that a decrease in muscle strength is observed in mouse models (C57BL/6J) (purchased from Oriental Yeast), the muscle strength (endurance) in 15-week old young mice and 79-week-old old mice was investigated in a treadmill test in accordance with the following (FIG. 1A). Prior to recording the performance, mice were trained for 3 days to acclimate the mice to the equipment. Electric stimulation grid was adjusted to 1 mA, and the gradient was set to 15 degrees. On the first day of training, mice were induced to walk for 10 minutes at a rate of 10 m/minute, allowed to rest for 10 minutes, and then induced to walk for 10 minutes at a rate of 10 m/minute on a treadmill. On day 2 and day 3, the first two steps were the under the same conditions as day 1, and then the mice were induced to start walking at 10 m/minute. The speed was increased by 1 m/minute until reaching the maximum speed of 20 m/minute. On day 4, the maximum exercise endurance was measured. Six mice were placed on a treadmill, which was started at a belt speed of 5 m/minute for 5 minutes to let the mice warm up. The speed was increased 1 m/minute until reaching the maximum speed of 20 m/minute. After making the mice run for 5 minutes, the speed was increased from 20 m/minute to 21 m/minute for 10 minutes. The mice were then forced to run at 22 m/minute until stalling on the electric stimulation grid for 10 seconds. The distance traveled until stalling for 10 seconds was measured.
OK-1 manufactured in Manufacturing Example 1 was intraperitoneally administered to young and old mice twice a week over three months. The dosage was 20 mg/kg/day.
74-week old mice (C57B16/J) were purchased from Oriental Yeast. […] Muscle strength (endurance) and grip strength of mice administered with C-82 were then measured through a treadmill test and smart grip strength meter for rats and mice (Muromachi Kikai Co., Ltd.), respectively. […]

[5] = test system: muscle of mice with/without exercise; assay: Collation of top 100 differentially expressed muscle genes with NIH MedlinePlus (related diseases); parameters: species or system mouse
Excerpt: Diseases associated with top 100 genes observed to have differential expression in mice with/without exercise were found by collation with NIH MedlinePlus (FIG. 8).

SMILES	kidney function and muscle (from creatine, IL-6, cholesterol, UN and UA concentrations) [1]	change in gene expression in muscles ([2]; C-82 administration, same method as Example 2)	cardiac function [3]	muscle strength (endurance) through a treadmill test ([4]; 74-week old mice, 7 mg/kg and 20 mg/kg intraperitoneal twice a week for 6 weeks, versus no administration)	diseases associated with the top 100 differentially expressed genes ([5]; C-82 administration, mice with/without exercise)	muscle (from creatine, IL-6 and cholesterol concentrations) [1]	gene group associated with OK-1 by GSEA: genes regulating muscle genes with exercise ([2]; GSEA)	genes decreased (downregulated expression) significantly in muscle ([2]; OK-1 administration, p<0.05) [genes]	genes increased (upregulated expression) significantly in muscle ([2]; OK-1 administration, p<0.05) [genes]	gene group associated with OK-1: genes associated with muscle control with exercise ([2]; upstream transcription factors)	muscle strength (endurance) through a treadmill test ([4]; intraperitoneal, twice a week over three months, 20 mg/kg/day, young (15-week) and old (79-week) mice)	gene group associated with OK-1: genes with change in muscle control with/without exercise, disease-associated ([5]; top 100 genes)
C[C@H]1[C@H]2N(C(=O)CN(C)N2C(=O)NCc2ccccc2)[C@@H](Cc2ccc(O)cc2)C(=O)N1Cc1cccc2cccnc12 [C-82, (6S,9S)—N-benzyl-6-(4-hydroxybenzyl)-2,9-dimethyl-4,7-dioxo-8-(quinolin-8-ylmethyl)hexahydro-2H-pyrazino[2,1-c][1,2,4]triazine-1(6H)-carboxamide]	kidney function and muscle improve	achieves the same result as OK-1	cardiac function is improved	significant increase in muscle strength (endurance); also recorded: increased significantly	achieves the same result as OK-1	–	–	–	–	–	–	–
C[C@H]1[C@H]2N(C(=O)CN(C)N2C(=O)NCc2ccccc2)[C@@H](Cc2ccc(OP(=O)(O)O)cc2)C(=O)N1Cc1cccc2cccnc12 [OK-1]	–	–	cardiac function is improved	–	–	muscle improves	ETS2, ETS1, EP300, RUNX2, SMAD3, SMAD4, E2F1, NOTCH1, TRP53, PAX6, SMAD1, SP1, SPI1, and NFKB1	631	145	Jun, Ets1, Sp1, Ep300, Usf2, Fosl1, Nfkb1, Smad3, Srf, Junb, Runx2, Ets2, Etv4, Tgfb1, and Tgfb1i1	increase in muscle strength due to OK-1 administration, which is specific to old mice	Dsp, Krt17, Comp, Krt86, Krt81, Krt83, Krt14, Abca12, Tchh, Krt5, Dsg4, Lpl, Myh6, Tfap2a, Col1a1, Lepr, Fn1, Col1a2, Col6a1, Col3a1, Mmp2, Acta2, F13a1, Col6a2, and Cx3cr1
